From patent US20220088103A1, “PEANUT STEM AND LEAF EXTRACT AND PREPARATION METHOD AND USE THEREOF” (INSTITUTE OF FOOD SCIENCE AND TECHNOLOGY, CHINESE ACADEMY …, priority 2019, published 2022)

System: sleep of mice
Assay: Effect on 24-hour sleep of mice (EEG and electromyograph recording)
Type: in vivo, Male Bal b/c mice
Details: standard substances dosed according to their identified contents in the extract; intragastric, D1 to D14; FIG. 3
Text: The BAL b/c mice is used as a model in the present invention, and the electrophysiological technology is adopted, wherein electrodes are implanted in the brain of the mice, and the brain wave changes of mice after drug administration is real time 24-hour monitored for 14 days, thereby determining that the functional active substances in the peanut stem and leaf extract provided by the present invention have a significant sleep promoting function.
Experiment of the effect of the peanut stem and leaf extract prepared in Example 1 on sleep of mice
The peanut stem and leaf extract prepared according to the method of Example 1 was used as an experimental drug, and the standard drugs were administered to the mice according to the identified contents of the substances such as naringenin-4,7′-dimethyl ether.
The experiment was divided into a control group, extract groups (three groups of low, medium and high doses), a positive control group and a functional factor group (four functional active substances). Male Bal b/c mice were used, 6 mice for each group.
The mice were anesthetized at abdominal cavity with chloral hydrate (4%) at 0.10 mL/10 g. After the pain reflex disappeared, the mice were fixed on a mouse brain stereotactic adapter, and the hair on the head of the mice was cut off and 75% alcohol was used to disinfect the skin, the skin was cut along the midline of the skull, and the subcutaneous tissue was separated to fully expose the skull. […] The electroencephalo-graph (EEG) electrodes were fixed on the skull with tissue glue and dental cement successively, and the EEG electrode was connected to a screw (fixed in the hole drilled on the skull) to touch the cerebral dura mater by a silver wire to record cortical EEG activity. The two silver wires connected to the myoelectric electrodes were inserted into the muscles on both sides of the neck of the mouse to record the myoelectric activity. The electrode base was then fixed to the skull with tissue glue and dental cement. Mice were injected with penicillin after surgery (measuring 80,000 units/day for three consecutive days). The mice were raised separately in a shielding box with constant temperature, constant humidity, sound insulation and electrostatic shielding function during the recovery period after surgery. The cables for recording EEG and myoelectricity were connected to the electrodes on the head of the mouse on the second day after surgery, and the mice were allowed to adapt for 7 days. […] The EEG and electromyograph of mice that recovered and adapted to the experimental environment began to be recorded from 8:00 in the morning for 24 hours, and this day was recorded as D0. […] The EEG and electromyograph were recorded on the D7 and D14, and the brain tissue was taken after gavage at 8:00 in the morning on D15.

| Compound | sleep time of mice (24-hour sleep) |
| --- | --- |
| C=CC(C)(O)CCC=C(C)C (stereo not shown) [linalool] | significantly improve |
| COc1ccc(C2CC(=O)c3c(O)cc(OC)cc3O2)cc1 (stereo not shown) [naringenin-4,7′-dimethyl ether] | significantly improve |
| COc1cc(O)ccc1C(=O)/C=C/c1ccc(O)cc1 [2′-O-methylisoliquiritigenin] | significantly improve |
| COc1cc(/C=C/C(=O)O)ccc1O [ferulic acid] | significantly improve |
